Reference: patent US20080188481A1 (priority 2002, published 2008)

tested on: HIV-1 single-round infectious reporter virus; experiment: Single-round infectious HIV-1 luciferase reporter virus infection of HeLa CD4 cells (antiviral EC50); format: cell-based; settings: Human immunodeficiency virus 1, HeLa, 72 h, read-out: EC50 Group from Table 1
Description: • Virus production—Human embryonic Kidney cell line, 293T, was propagated in Dulbecco's Modified Eagle Medium (Invitrogen, Carlsbad, Calif.) containing 10% fetal Bovine serum (FBS, Sigma, St. Louis, Mo.). • Virus infection—Human epithelial cell line, HeLa, expressing the HIV-1 receptor CD4 was propagated in Dulbecco's Modified Eagle Medium (Invitrogen, Carlsbad, Calif.) containing 10% fetal Bovine serum (FBS, Sigma, St. Louis, Mo.) and supplemented with 0.2 mg/mL Geneticin (Invitrogen, Carlsbad, Calif.). Virus-Single-round infectious reporter virus was produced by co-transfecting human embryonic Kidney 293 cells with an HIV-1 envelope DNA expression vector and a proviral cDNA containing an envelope deletion mutation and the luciferase reporter gene inserted in place of HIV-1 nef sequences (Chen et al, Ref. 41). Transfections were performed using lipofectAMINE PLUS reagent as described by the manufacturer (Invitrogen, Carlsbad, Calif.).
• 1. HeLa CD4 cells were plated in 96 well plates at a cell density of 1×10^4 cells per well in 100 μl Dulbecco's Modified Eagle Medium containing 10% fetal Bovine serum and incubated overnight. • 2. Compound was added in a 2 μl dimethylsulfoxide solution, so that the final assay concentration would be ≦10 μM. • 3. 100 μl of single-round infectious reporter virus in Dulbecco's Modified Eagle Medium was then added to the plated cells and compound at an approximate multiplicity of infection (MOI) of 0.01, resulting in a final volume of 200 μl per well. • 4. Virally-infected cells were incubated at 37 degrees Celsius, in a CO2 incubator, and harvested 72 h after infection. • 5. Viral infection was monitored by measuring luciferase expression from viral DNA in the infected cells using a luciferase reporter gene assay kit, as described by the manufacturer (Roche Molecular Biochemicals, Indianapolis, Ind.). Infected cell supernatants were removed and 50 μl of lysis buffer was added per well. After 15 minutes, 50 μl of freshly-reconstituted luciferase assay reagent was added per well. Luciferase activity was then quantified by measuring luminescence using a Wallac microbeta scintillation counter. • 6. The percent inhibition for each compound was calculated by quantifying the level of luciferase expression in cells infected in the presence of each compound as a percentage of that observed for cells infected in the absence of compound and subtracting such a determined value from 100. • 7. An EC50 provides a method for comparing the antiviral potency of the compounds of this invention. The effective concentration for fifty percent inhibition (EC50) was calculated with the Microsoft Excel Xlfit curve fitting software. For each compound, curves were generated from percent inhibition calculated at 10 different concentrations by using a four paramenter logistic model (model 205). Table 1 is the key for the data in Table 2.

**Q.** How did the EC50 turn out when `COc1cnc(-n2cnc(C)n2)c2[nH]cc(C(=O)C(=O)N3CCC(=C(c4ccccc4)c4cccc(CO)c4)CC3)c12` [Example 84, 1-[4-(1-Phenyl-1-(3-hydroxymethylphenyl)-methylene)-piperidin-1-yl]-2-[4-methoxy-7-(3-methyl-1,2,4-triazol-1-yl)-6-azaindol-3-yl]-ethane-1,2-dione] was run?
**A.** The EC50 was < 1000 nM.

**Q.** With `COc1cnc(-n2cnc(C)n2)c2[nH]cc(C(=O)C(=O)N3CCC(=C(c4ccccc4)c4cc(F)cc(F)c4)CC3)c12` [Example 85, 1-[4-(1-Phenyl-1-(3,5-difluorophenyl)-methylene)-piperidin-1-yl]-2-[4-methoxy-7-(3-methyl-1,2,4-triazol-1-yl)-6-azaindol-3-yl]-ethane-1,2-dione] as the compound, how does the EC50 read?
**A.** Its EC50 is < 1000 nM.

**Q.** Which EC50 does the source give for `CCOC(=O)c1cc(C(=C2CCN(C(=O)C(=O)c3c[nH]c4c(-n5cnc(C)n5)ncc(OC)c34)CC2)c2ccccc2)n[nH]1` [Example 87] here?
**A.** Its EC50 is < 1000 nM.

**Q.** How did the EC50 turn out when `COc1cnc(-n2cncn2)c2[nH]cc(C(=O)C(=O)N3CCC(=C(Br)c4ccccc4)CC3)c12` [Example 88] was run?
**A.** Its EC50 is < 1000 nM.

**Q.** `COc1cnc(-c2cnccn2)c2[nH]cc(C(=O)C(=O)N3CCC(=C(Br)c4ccccc4)CC3)c12` [Example 89] was tested. Which EC50 did it give?
**A.** Its EC50 is < 1000 nM.

**Q.** Which EC50 does the source give for `COc1cnc(-c2cnccn2)c2[nH]cc(C(=O)C(=O)N3CCC(=C(c4ccccc4)c4nccs4)CC3)c12` [Example 90] here?
**A.** Its EC50 is < 1000 nM.

**Q.** How did the EC50 turn out when `COc1cnc(-c2cnccn2)c2[nH]cc(C(=O)C(=O)N3CCC(=C(c4ccccc4)c4csc(C)n4)CC3)c12` [Example 91] was run?
**A.** Its EC50 is < 1000 nM.

**Q.** For `COc1cnc(-c2cnccn2)c2[nH]cc(C(=O)C(=O)N3CCC(=C(c4ccccc4)c4cnco4)CC3)c12` [Example 92], which EC50 is on record?
**A.** Its EC50 is < 1000 nM.

**Q.** How did the EC50 turn out when `COc1cnc(-c2cnccn2)c2[nH]cc(C(=O)C(=O)N3CCC(=C(c4ccccc4)c4ccc(F)cc4)CC3)c12` [Example 93] was run?
**A.** Its EC50 is < 1000 nM.

**Q.** Which EC50 does the source give for `COc1cnc(-c2cnccn2)c2[nH]cc(C(=O)C(=O)N3CCC(=C(c4ccccc4)c4cccc(F)c4)CC3)c12` [Example 94] here?
**A.** The EC50 was < 1000 nM.

**Q.** `COc1cnc(-n2ccc(C)n2)c2[nH]cc(C(=O)C(=O)N3CCC(=C(c4ccccc4)c4nccs4)CC3)c12` [Example 95] was tested. Which EC50 did it give?
**A.** Its EC50 is < 1000 nM.

**Q.** Which EC50 does the source give for `COc1cnc(-n2ccc(C)n2)c2[nH]cc(C(=O)C(=O)N3CCC(=C(c4ccccc4)c4cnccn4)CC3)c12` [Example 96] here?
**A.** Its EC50 is < 1000 nM.

**Q.** `COc1cnc(-n2ccc(C)n2)c2[nH]cc(C(=O)C(=O)N3CCC(=C(c4ccccc4)c4ccc(F)cc4)CC3)c12` [Example 97] was tested. Which EC50 did it give?
**A.** The EC50 was < 1000 nM.

**Q.** Which EC50 does the source give for `COc1cnc(-n2ccc(C)n2)c2[nH]cc(C(=O)C(=O)N3CCC(=C(c4ccccc4)c4cccc(F)c4)CC3)c12` [Example 98] here?
**A.** Its EC50 is < 1000 nM.

**Q.** How did the EC50 turn out when `COc1cnc(-n2ccc(C)n2)c2[nH]cc(C(=O)C(=O)N3CCC(=C(c4ccccc4)c4nnc(C)o4)CC3)c12` [Example 99] was run?
**A.** The EC50 was < 1000 nM.

**Q.** How did the EC50 turn out when `COc1cnc(-n2ccc(C)n2)c2[nH]cc(C(=O)C(=O)N3CCC(=C(c4ccccc4)c4csc(C)n4)CC3)c12` [Example 100] was run?
**A.** Its EC50 is < 1000 nM.

**Q.** Which EC50 does the source give for `N#CC(=C1CCN(C(=O)C(=O)c2c[nH]c3c(Cl)ccnc23)CC1)c1ccccc1` [Example 101, {1-[2-(7-Chloro-1H-pyrrolo[3,2-b]pyridin-3-yl)-2-oxo-acetyl]-piperidin-4-ylidene}-phenyl-acetonitrile] here?
**A.** Its EC50 is < 1000 nM.

**Q.** Which EC50 does the source give for `N#CC(=C1CCN(C(=O)C(=O)c2c[nH]c3c(-c4cnccn4)ccnc23)CC1)c1ccccc1` [Example 102, {1-[2-Oxo-2-(7-pyrazin-2-yl-1H-pyrrolo[3,2-b]pyridin-3-yl)-acetyl]-piperidin-4-ylidene}-phenyl-acetonitrile] here?
**A.** Its EC50 is < 1000 nM.

**Q.** Which EC50 does the source give for `N#CC(=C1CCN(C(=O)C(=O)c2c[nH]c3c(-c4ncco4)ccnc23)CC1)c1ccccc1` [Example 103, {1-[2-(7-Oxazol-2-yl-1H-pyrrolo[3,2-b]pyridin-3-yl)-2-oxo-acetyl]-piperidin-4-ylidene}-phenyl-acetonitrile] here?
**A.** The EC50 was < 1000 nM.

**Q.** `N#CC(=C1CCN(C(=O)C(=O)c2c[nH]c3c(-c4nccs4)ccnc23)CC1)c1ccccc1` [Example 104, {1-[2-Oxo-2-(7-thiazol-2-yl-1H-pyrrolo[3,2-b]pyridin-3-yl)-acetyl]-piperidin-4-ylidene}-phenyl-acetonitrile] was tested. Which EC50 did it give?
**A.** The EC50 was < 1000 nM.

**Q.** How did the EC50 turn out when `N#CC(=C1CCN(C(=O)C(=O)c2c[nH]c3c(-n4nccn4)ccnc23)CC1)c1ccccc1` [Example 105, {1-[2-Oxo-2-(7-[1,2,3]triazol-2-yl-1H-pyrrolo[3,2-b]pyridin-3-yl)-acetyl]-piperidin-4-ylidene}-phenyl-acetonitrile] was run?
**A.** Its EC50 is < 1000 nM.

**Q.** Which EC50 does the source give for `N#CC(=C1CCN(C(=O)C(=O)c2c[nH]c3c(-c4cncc(N)n4)ccnc23)CC1)c1ccccc1` [Example 106, (1-{2-[7-(6-Amino-pyrazin-2-yl)-1H-pyrrolo[3,2-b]pyridin-3-yl]-2-oxo-acetyl}-piperidin-4-ylidene)-phenyl-acetonitrile] here?
**A.** The EC50 was < 1000 nM.

**Q.** With `O=C(C(=O)N1CCC(=C(Br)c2ccccc2)CC1)c1c[nH]c2c(Cl)ccnc12` [Example 107, 1-[4-(Bromo-phenyl-methylene)-piperidin-1-yl]-2-(7-chloro-1H-pyrrolo[3,2-b]pyridin-3-yl)-ethane-1,2-dione] as the compound, how does the EC50 read?
**A.** Its EC50 is < 1000 nM.

**Q.** `Cc1nnc(C(=C2CCN(C(=O)C(=O)c3c[nH]c4c(Cl)ccnc34)CC2)c2ccccc2)o1` [Example 108, 1-(7-Chloro-1H-pyrrolo[3,2-b]pyridin-3-yl)-2-{4-[(5-methyl-[1,3,4]oxadiazol-2-yl)-phenyl-methylene]-piperidin-1-yl}-ethane-1,2-dione] was tested. Which EC50 did it give?
**A.** The EC50 was < 1000 nM.

**Q.** For `O=C(C(=O)N1CCC(=C(c2ccccc2)c2cc(F)cc(F)c2)CC1)c1c[nH]c2c(Cl)ccnc12` [Example 109, 1-(7-Chloro-1H-pyrrolo[3,2-b]pyridin-3-yl)-2-{4-[(3,5-difluoro-phenyl)-phenyl-methylene]-piperidin-1-yl}-ethane-1,2-dione], which EC50 is on record?
**A.** The EC50 was < 1000 nM.

**Q.** With `N#CC(=C1CCN(C(=O)C(=O)c2c[nH]c3c(-n4cncn4)ncc(F)c23)CC1)c1ccccc1` [Example 110, {1-[2-(4-Fluoro-7-[1,2,4]triazol-1-yl-1H-pyrrolo[2,3-c]pyridin-3-yl)-2-oxo-acetyl]-piperidin-4-ylidene}-phenyl-acetonitrile] as the compound, how does the EC50 read?
**A.** The EC50 was < 1000 nM.

**Q.** How did the EC50 turn out when `N#CC(=C1CCN(C(=O)C(=O)c2c[nH]c3c(-n4ccc(N)n4)ncc(F)c23)CC1)c1ccccc1` [Example 111, (1-{2-[7-(3-Amino-pyrazol-1-yl)-4-fluoro-1H-pyrrolo[2,3-c]pyridin-3-yl]-2-oxo-acetyl}-piperidin-4-ylidene)-phenyl-acetonitrile] was run?
**A.** Its EC50 is < 1000 nM.

**Q.** Which EC50 does the source give for `COc1ncc(OC)c2c(C(=O)C(=O)N3CCC(=C(C#C[Si](C)(C)C)c4ccccc4)CC3)c[nH]c12` [Example 112, 1-[4-(1-Phenyl-1-(2-trimethylsilylethyn-1-yl)-methylene)-piperidin-1-yl]-2-(4,7-dimethoxy-6-azaindol-3-yl)-ethane-1,2-dione] here?
**A.** The EC50 was < 1000 nM.

**Q.** With `C#CC(=C1CCN(C(=O)C(=O)c2c[nH]c3c(OC)ncc(OC)c23)CC1)c1ccccc1` [Example 113, 1-[4-(1-Phenyl-1-ethynyl-methylene)-piperidin-1-yl]-2-(4,7-dimethoxy-6-azaindol-3-yl)-ethane-1,2-dione] as the compound, how does the EC50 read?
**A.** The EC50 was < 1000 nM.

**Q.** How did the EC50 turn out when `COc1ncc(OC)c2c(C(=O)C(=O)N3CCC(=C(C#CC(C)C)c4ccccc4)CC3)c[nH]c12` [Example 114, 1-[4-(1-Phenyl-1-(2-isopropylethyn-1-yl)-methylene)-piperidin-1-yl]-2-(4,7-dimethoxy-6-azaindol-3-yl)-ethane-1,2-dione] was run?
**A.** The EC50 was < 1000 nM.

**Q.** For `COc1ncc(OC)c2c(C(=O)C(=O)N3CCC(=C(C#CC4CC4)c4ccccc4)CC3)c[nH]c12` [Example 115, 1-[4-(1-Phenyl-1-(2-cyclopropylethyn-1-yl)-methylene)-piperidin-1-yl]-2-(4,7-dimethoxy-6-azaindol-3-yl)-ethane-1,2-dione], which EC50 is on record?
**A.** Its EC50 is < 1000 nM.

**Q.** How did the EC50 turn out when `COc1ncc(OC)c2c(C(=O)C(=O)N3CCC(=C(C#CCO)c4ccccc4)CC3)c[nH]c12` [Example 116, 1-[4-(1-Phenyl-1-(2-hydroxymethylethyn-1-yl)-methylene)-piperidin-1-yl]-2-(4,7-dimethoxy-6-azaindol-3-yl)-ethane-1,2-dione] was run?
**A.** Its EC50 is < 1000 nM.

**Q.** For `COCC#CC(=C1CCN(C(=O)C(=O)c2c[nH]c3c(OC)ncc(OC)c23)CC1)c1ccccc1` [Example 117, 1-[4-(1-Phenyl-1-(2-methoxymethylethyn-1-yl)-methylene)-piperidin-1-yl]-2-(4,7-dimethoxy-6-azaindol-3-yl)-ethane-1,2-dione], which EC50 is on record?
**A.** The EC50 was < 1000 nM.
